Assay results reported in patent US20240343740A1, “MACROCYCLIC GLUCAGON-LIKE PEPTIDE 1 RECEPTOR AGONISTS” (Eli Lilly and Company, priority 2021, published 2024).

How the values were obtained:
[1] = biological target: T1, human GLP-1R (Homo sapiens, UniProt P43220); experiment: Human GLP-1 Receptor HEK293 cell cAMP assay, 581 fmol/mg GLP-1R expression density; format: cell-based; set-up: expressed in transfected cells; host or cells: HEK293 clonal cell line; conditions: HEK293 cell line with 581 fmol/mg expression density of GLP-1R; for EC50: geometric mean, read-out: EC50 nM (SEM, n), intracellular cAMP response, relative EC50; for Emax: percent of maximal response to GLP-1(7-36)NH2, arithmetic mean, read-out: Emax % (SEM, n), intracellular cAMP response
T1 sequence (P43220 24-463): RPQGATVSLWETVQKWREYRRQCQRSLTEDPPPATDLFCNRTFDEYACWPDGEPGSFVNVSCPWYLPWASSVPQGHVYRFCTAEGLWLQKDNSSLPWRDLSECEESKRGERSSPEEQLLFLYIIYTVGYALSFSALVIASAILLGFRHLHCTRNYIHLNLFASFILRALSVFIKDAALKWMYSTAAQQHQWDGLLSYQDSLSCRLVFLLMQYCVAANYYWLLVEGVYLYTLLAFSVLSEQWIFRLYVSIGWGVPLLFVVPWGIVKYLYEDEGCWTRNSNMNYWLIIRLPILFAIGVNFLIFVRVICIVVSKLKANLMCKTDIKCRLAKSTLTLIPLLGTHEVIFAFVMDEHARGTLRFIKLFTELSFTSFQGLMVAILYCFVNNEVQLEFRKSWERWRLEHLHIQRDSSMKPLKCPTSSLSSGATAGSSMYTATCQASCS
Method: (§1) Human GLP-1 Receptor HEK293 Cell cAMP Assay
(§2) GLP-1 Receptor functional activity is determined using cAMP formation in an HEK293 clonal cell line expressing human GLP-1R (NCBI accession number NP_002053) at an expression density of 581±94 (n=6) and 104±12 (n=5) fmol/mg protein (determined using [^125I]GLP-1(7-36)NH2 homologous competition binding analysis). The hGLP-1R receptor expressing cells are treated with compound (20 point concentration-response curve in DMSO, 2.75-fold Labcyte Echo direct dilution, 384 well plate Corning Cat #3570) in DMEM (Gibco Cat #31053) supplemented with 1× GlutaMAX™ (Gibco Cat #35050), 0.1% bovine casein (Sigma C4765-10ML), 250 μM IBMX (3-Isobutyl-1-methylxanthine, Acros Cat #228420010) and 20 mM HEPES (Gibco Cat #15630) in a 20 μL assay volume (final DMSO concentration is 0.5%). After a 30 min incubation at 37° C., the resulting increase in intracellular cAMP is quantitatively determined using the CisBio cAMP Dynamic 2 HTRF Assay Kit (62AM4PEJ). Briefly, cAMP levels within the cell are detected by adding the cAMP-d2 conjugate in cell lysis buffer (10 μL) followed by the antibody anti-cAMP-Eu^3+-Cryptate, also in cell lysis buffer (10 μL). The resulting competitive assay is incubated for at least 60 min at RT, then detected using a PerkinElmer Envision® instrument with excitation at 320 nm and emission at 665 nm and 620 nm. Envision units (emission at 665 nm/620 nm*10,000) are inversely proportional to the amount of cAMP present and are converted to nM cAMP per well using a cAMP standard curve. The amount of cAMP generated (nM) in each well is converted to a percent of the maximal response observed with human GLP-1(7-36)NH2. A relative EC50 value and percent top (Emax) are derived by non-linear regression analysis using the percent maximal response vs. the concentration of compound added, fitted to a four-parameter logistic equation.

[2] = biological target: T1, human GLP-1R; experiment: Human GLP-1 Receptor HEK293 cell cAMP assay, 104 fmol/mg GLP-1R expression density; format: cell-based; set-up: expressed in transfected cells; host or cells: HEK293 clonal cell line; conditions: HEK293 cell line with 104 fmol/mg expression density of GLP-1R; for EC50: geometric mean, read-out: EC50 nM (SEM, n), intracellular cAMP response, relative EC50; for Emax: percent of maximal response to GLP-1(7-36)NH2, arithmetic mean, read-out: Emax % (SEM, n), intracellular cAMP response
Method: as §1, §2

| SMILES | EC50 [1] [nM] | Emax [1] [%] | EC50 [2] [nM] | Emax [2] [%] |
| --- | --- | --- | --- | --- |
| COc1cc(C(=O)O)cc2c1nc(Cc1cc(F)c3cc1COCc1cc(C#N)ccc1COc1cccc-3n1)n2C[C@@H]1CCO1 [Example 17, (S)-2-((5^4-cyano-1^6-fluoro-3,7-dioxa-2(2,6)-pyridina-1(1,3),5(1,2)-dibenzenacyclooctaphane-1^4-yl)methyl)-4-methoxy-1-(oxetan-2-ylmethyl)-1H-benzo[d]imidazole-6-carboxylic acid] | 10.5 | 121 | 38.4 | 84.6 |
| COc1cc(C(=O)NS(=O)(=O)CC2CC2)cc2c1nc(Cc1cc(C)c3cc1OCCCc1cc(F)ccc1COc1cccc-3n1)n2C[C@@H]1CCO1 [Example 69, (S)—N-((Cyclopropylmethyl)sulfonyl)-2-((5^4-fluoro-1^6-methyl-3,9-dioxa-2(2,6)-pyridina-1(1,3),5(1,2)-dibenzenacyclononaphane-1^4-yl)methyl)-4-methoxy-1-(oxetan-2-ylmethyl)-1H-benzo[d]imidazole-6-carboxamide] | 59.8 | 71.6 | 103 | 26.6 |
| COc1cc(C(=O)O)cc2c1nc(Cc1ccc3cc1COCCc1cc(C#N)ccc1COc1ccnc-3n1)n2C[C@@H]1CCO1 [Example 51, (S)-2-((5^4-Cyano-3,8-dioxa-2(2,4)-pyrimidina-1(1,3),5(1,2)-dibenzenacyclononaphane-1^4-yl)methyl)-4-methoxy-1-(oxetan-2-ylmethyl)-1H-benzo[d]imidazole-6-carboxylic acid] | 41 | 96.7 | 152 | 77.1 |
| COCCOc1cc(C(=O)O)cc2c1nc(Cc1cc(F)c3cc1COCc1cc(Cl)ccc1COc1cccc-3n1)n2C[C@@H]1CCO1 [Example 67, (S)-2-((5^4-Chloro-1^6-fluoro-3,7-dioxa-2(2,6)-pyridina-1(1,3),5(1,2)-dibenzenacyclooctaphane-1^4-yl)methyl)-4-(2-methoxyethoxy)-1-(oxetan-2-ylmethyl)-1H-benzo[d]imidazole-6-carboxylic acid] | 2.13 | 117 | 6.88 | 91.6 |
| COc1cc(C(=O)O)cc2c1nc(Cc1cc(C)c3cc1OCCCc1cc(C#N)ccc1COc1cccc-3n1)n2C[C@@H]1CCO1 [Example 9, (S)-2-((5^4-Cyano-16-methyl-3,9-dioxa-2(2,6)-pyridina-1(1,3),5(1,2)-dibenzenacyclononaphane-1^4-yl)methyl)-4-methoxy-1-(oxetan-2-ylmethyl)-1H-benzo[d]imidazole-6-carboxylic acid] | 1.8 | 118 | 5.44 | 83.1 |
| CN(C)CCOc1cc(C(=O)O)cc2c1nc(Cc1ccc3cc1COCCc1cc(Cl)ccc1COc1cccc-3n1)n2C[C@@H]1CCO1 [Example 56, (S)-2-((5^4-Chloro-3,8-dioxa-2(2,6)-pyridina-1(1,3),5(1,2)-dibenzenacyclononaphane-1^4-yl)methyl)-4-(2-(dimethylamino)ethoxy)-1-(oxetan-2-ylmethyl)-1H-benzo[d]imidazole-6-carboxylic acid] | 55.8 | 85 | 131 | 41.7 |
| Cn1nccc1-c1ccc2c(c1)CCCOc1cc(ccc1Cc1nc3ccc(C(=O)O)cc3n1C[C@@H]1CCO1)-c1cccc(n1)OC2 [Example 31, (S)-2-((5^4-(1-Methyl-1H-pyrazol-5-yl)-3,9-dioxa-2(2,6)-pyridina-1(1,3),5(1,2)-dibenzenacyclononaphane-1^4-yl)methyl)-1-(oxetan-2-ylmethyl)-1H-benzo[d]imidazole-6-carboxylic acid] | 70.1 | 104 | 251 | 88.8 |
| O=C(O)c1ccc2nc(Cc3ccc4cc3OCCCc3cc(Br)ccc3COc3cccc-4n3)n(C[C@@H]3CCO3)c2c1 [Example 18, (S)-2-((5^4-Bromo-3,9-dioxa-2(2,6)-pyridina-1(1,3),5(1,2)-dibenzenacyclononaphane-1^4-yl)methyl)-1-(oxetan-2-ylmethyl)-1H-benzo[d]imidazole-6-carboxylic acid] | 50.3 | 115 | 169 | 94.9 |
| O=C(O)c1ccc2nc(Cc3ccc4cc3OCCCc3cc(CO)ccc3COc3cccc-4n3)n(C[C@@H]3CCO3)c2c1 [Example 25, (S)-2-((5^4-(Hydroxymethyl)-3,9-dioxa-2(2,6)-pyridina-1(1,3),5(1,2)-dibenzenacyclononaphane-1^4-yl)methyl)-1-(oxetan-2-ylmethyl)-1H-benzo[d]imidazole-6-carboxylic acid] | 317 | 98.3 | 703 | 62.1 |
| CN(C)C(=O)COc1cc(C(=O)O)cc2c1nc(Cc1ccc3cc1OCCCc1cc(C#N)ccc1COc1cccc-3n1)n2C[C@@H]1CCO1 [Example 62, (S)-2-((5^4-Cyano-3,9-dioxa-2(2,6)-pyridina-1(1,3),5(1,2)-dibenzenacyclononaphane-1^4-yl)methyl)-4-(2-(dimethylamino)-2-oxoethoxy)-1-(oxetan-2-ylmethyl)-1H-benzo[d]imidazole-6-carboxylic acid] | 285 | 62.2 | 737 | 32.9 |
| COCCOc1cc(C(=O)O)cc2c1nc(Cc1cc(F)c3cc1COCCc1cc(Cl)cc(F)c1COc1cccc-3n1)n2C[C@@H]1CCO1 [Example 45, (S)-2-((5^4-Chloro-1^6,5^6-difluoro-3,8-dioxa-2(2,6)-pyridina-1(1,3),5(1,2)-dibenzenacyclononaphane-1^4-yl)methyl)-4-(2-methoxyethoxy)-1-(oxetan-2-ylmethyl)-1H-benzo[d]imidazole-6-carboxylic acid] | 2.4 | 122 | 7.57 | 87.9 |
| COc1cc(C(=O)O)cc2c1nc(Cc1ccc3cc1OCCCc1cc(C#N)ccc1COc1cccc-3n1)n2Cc1ncco1 [Example 23, 2-((5^4-Cyano-3,9-dioxa-2(2,6)-pyridina-1(1,3),5(1,2)-dibenzenacyclononaphane-1^4-yl)methyl)-4-methoxy-1-(oxazol-2-ylmethyl)-1H-benzo[d]imidazole-6-carboxylic acid] | 69.3 | 106 | 344 | 83.7 |
| CS(=O)(=O)c1ccc(-c2ccc3c(c2)CCCOc2cc(ccc2Cc2nc4ccc(C(=O)O)cc4n2C[C@@H]2CCO2)-c2cccc(n2)OC3)cc1 [Example 33, (S)-2-((5^4-(4-(Methylsulfonyl)phenyl)-3,9-dioxa-2(2,6)-pyridina-1(1,3),5(1,2)-dibenzenacyclononaphane-1^4-yl)methyl)-1-(oxetan-2-ylmethyl)-1H-benzo[d]imidazole-6-carboxylic acid] | 40.8 | 112 | 111 | 85 |
| O=C(O)c1cc(OCCO)c2nc(Cc3ccc4cc3COCCc3cc(Cl)ccc3COc3cccc-4n3)n(C[C@@H]3CCO3)c2c1 [Example 55, (S)-4-[2-Hydroxyethoxy]-2-((5^4-chloro-3,8-dioxa-2(2,6)-pyridina-1(1,3),5(1,2)-dibenzenacyclononaphane-1^4-yl)methyl)-1-(oxetan-2-ylmethyl)-1H-benzo[d]imidazole-6-carboxylic acid] | 8.94 | 113 | 22.8 | 84.8 |
| N#Cc1ccc2c(c1)CCCOc1cc(ccc1Cc1nc3c(OCCNCC(F)(F)F)cc(C(=O)O)cc3n1C[C@@H]1CCO1)-c1cccc(n1)OC2 [Example 54, (S)-2-((5^4-Cyano-3,9-dioxa-2(2,6)-pyridina-1(1,3),5(1,2)-dibenzenacyclononaphane-1^4-yl)methyl)-1-(oxetan-2-ylmethyl)-4-(2-((2,2,2-trifluoroethyl)amino)ethoxy)-1H-benzo[d]imidazole-6-carboxylic acid] | 440 | 49.5 | 654 | 18.3 |
